In ChEMBL document CHEMBL1201862, “PubChem BioAssay data set” (2004):
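Growth conditions: 96-well plates. Treatment: test compound, 48 hours, 5 concentrations. Analysis: linear interpolation between bracketing concentrations; unreached endpoints set to highest concentration. At the GI50, growth is halved.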 The source made the active and inactive calls. No stated cut-off is given here; in the data, active = GI50 up to about 1.1 µM and inactive = higher.

Experiments:
Experiment in all cases: NCI anticancer screen, dose series, 48 h
DMS-114 = tested on: DMS-114
DMS-273 = tested on: DMS-273
KM-20L2 = tested on: KM-20L2
LXFL 529 = tested on: LXFL 529
M19-MEL = tested on: M19-MEL
DLD-1 = tested on: DLD-1
HOP-18 = tested on: HOP-18
RXF 631 = tested on: RXF 631
XF498 = tested on: XF498

SMILES: COc1ccc(C(=O)NNC(=O)c2nsc3ccccc23)cc1
- GI50 (DMS-114): 63 µM (inactive)
- GI50 (DMS-273): > 100 µM (inactive)
- GI50 (KM-20L2): 35.9 µM (inactive)
- GI50 (LXFL 529): > 100 µM (inactive)
- GI50 (M19-MEL): > 100 µM (inactive)

SMILES: CCOC(=O)C1CCn2c(nc3c2c(=O)n(C)c(=O)n3C)S1 (stereo not given)
- GI50 (DLD-1): > 100 µM (inactive)
- GI50 (DMS-273): > 100 µM (inactive)
- GI50 (HOP-18): > 100 µM (inactive)
- GI50 (KM-20L2): > 100 µM (inactive)
- GI50 (LXFL 529): > 100 µM (inactive)

SMILES: O=C(NN1C(=O)CSC1c1cccc(F)c1)c1ccncc1 (stereo not given)
- GI50 (DMS-114): > 100 µM (inactive)
- GI50 (DMS-273): > 100 µM (inactive)
- GI50 (HOP-18): < 0.01 µM (active)
- GI50 (KM-20L2): > 100 µM (inactive)
- GI50 (LXFL 529): > 100 µM (inactive)
- GI50 (RXF 631): > 100 µM (inactive)
- GI50 (XF498): > 100 µM (inactive)

SMILES: Cc1cc(=O)c2c([nH]1)NS(=O)(=O)NC2=O
- GI50 (DLD-1): > 100 µM (inactive)
- GI50 (DMS-273): > 100 µM (inactive)
- GI50 (LXFL 529): > 100 µM (inactive)
- GI50 (M19-MEL): > 100 µM (inactive)
- GI50 (RXF 631): > 100 µM (inactive)
- GI50 (XF498): > 100 µM (inactive)

SMILES: Cc1ccc(/N=N/C(C(=O)c2ccccc2)C(=O)c2ccccc2)cc1
- GI50 (DLD-1): 21.9 µM (inactive)
- GI50 (DMS-114): 20.1 µM (inactive)
- GI50 (DMS-273): 19.2 µM (inactive)
- GI50 (KM-20L2): 25.3 µM (inactive)
- GI50 (LXFL 529): 14.5 µM (inactive)
- GI50 (M19-MEL): 16 µM (inactive)
- GI50 (RXF 631): 35.8 µM (inactive)
- GI50 (XF498): 20.1 µM (inactive)

SMILES: CC1CC2=C(S(=O)(=O)c3ccccc3)CC(S(=O)(=O)c3ccccc3)(S(=O)(=O)c3ccccc3)CC21 (stereo not given)
- GI50 (DLD-1): > 100 µM (inactive)
- GI50 (DMS-114): 9.64 µM (inactive)
- GI50 (DMS-273): > 100 µM (inactive)
- GI50 (HOP-18): > 100 µM (inactive)
- GI50 (KM-20L2): > 100 µM (inactive)
- GI50 (XF498): > 100 µM (inactive)

SMILES: Cc1cc(=O)oc2c1cc1ccc3cccc4ccc2c1c34
- GI50 (DLD-1): > 100 µM (inactive)
- GI50 (HOP-18): > 100 µM (inactive)
- GI50 (KM-20L2): > 100 µM (inactive)
- GI50 (LXFL 529): > 100 µM (inactive)
- GI50 (M19-MEL): > 100 µM (inactive)

SMILES: O=C1CCC(NC(=O)Cc2ccc(O)cc2)C(=O)N1 (stereo not given)
- GI50 (DMS-114): > 2500 µM (inactive)
- GI50 (DMS-273): > 2500 µM (inactive)
- GI50 (HOP-18): > 2500 µM (inactive)
- GI50 (KM-20L2): > 2500 µM (inactive)
- GI50 (LXFL 529): > 2500 µM (inactive)
- GI50 (M19-MEL): > 2500 µM (inactive)
- GI50 (RXF 631): > 2500 µM (inactive)
- GI50 (XF498): > 2500 µM (inactive)

SMILES: Cc1ccc(C2CC(c3cccc([N+](=O)[O-])c3)=Nc3ccccc3S2)cc1 (stereo not given)
- GI50 (DLD-1): 20 µM (inactive)
- GI50 (DMS-114): 22.5 µM (inactive)
- GI50 (DMS-273): 33.7 µM (inactive)
- GI50 (HOP-18): 15.4 µM (inactive)
- GI50 (KM-20L2): 44.5 µM (inactive)
- GI50 (LXFL 529): 27.2 µM (inactive)
- GI50 (M19-MEL): 40.4 µM (inactive)
- GI50 (RXF 631): > 93.8 µM (inactive)
- GI50 (XF498): 21.4 µM (inactive)

SMILES: CC1CC(C[N+](=O)[O-])CC2(C1)OCCO2 (stereo not given)
- GI50 (DLD-1): > 100 µM (inactive)
- GI50 (DMS-114): > 100 µM (inactive)
- GI50 (DMS-273): > 100 µM (inactive)
- GI50 (HOP-18): > 100 µM (inactive)
- GI50 (KM-20L2): > 100 µM (inactive)
- GI50 (LXFL 529): > 100 µM (inactive)
- GI50 (M19-MEL): > 100 µM (inactive)

SMILES: O=C(OCCOC(=O)c1ccc2c(c1)C1(SCCS1)c1ccccc1-2)c1ccc2c(c1)C1(SCCS1)c1ccccc1-2
- GI50 (DLD-1): > 100 µM (inactive)
- GI50 (DMS-114): > 100 µM (inactive)
- GI50 (HOP-18): 27.5 µM (inactive)
- GI50 (KM-20L2): > 100 µM (inactive)
- GI50 (LXFL 529): > 100 µM (inactive)
- GI50 (M19-MEL): > 100 µM (inactive)

SMILES: O=C1NC(O)CCN1C1OC(CO)C(O)C1O (stereo not given)
- GI50 (DLD-1): > 250 µM (inactive)
- GI50 (DMS-114): > 250 µM (inactive)
- GI50 (DMS-273): > 250 µM (inactive)
- GI50 (HOP-18): > 250 µM (inactive)
- GI50 (KM-20L2): > 68.7 µM (inactive)
- GI50 (M19-MEL): > 213 µM (inactive)
- GI50 (XF498): > 250 µM (inactive)

SMILES: CC/C=C\C/C=C\C/C=C\CCCCCCCC(=O)OC [METHYL LINOLENATE]
- GI50 (DLD-1): > 100 µM (inactive)
- GI50 (DMS-114): > 100 µM (inactive)
- GI50 (DMS-273): > 100 µM (inactive)
- GI50 (HOP-18): > 100 µM (inactive)
- GI50 (M19-MEL): > 100 µM (inactive)
- GI50 (XF498): > 100 µM (inactive)
